Measurements published in ChEMBL document CHEMBL3627608, “Crystal structures of human RIP2 kinase catalytic domain complexed with ATP-competitive inhibitors: Foundations for understanding inhibitor selectivity” (Bioorg Med Chem, 2015).

Tests used:
[1] = biological target: Serine/threonine-protein kinase MARK2 (Homo sapiens) (UniProt Q7KZI7); test: Inhibition of MARK2 (unknown origin) at 10 uM after 120 mins P33 radiolabeled kinase activity assay
[2] = biological target: Ephrin type-A receptor 7 (Homo sapiens) (UniProt Q15375); test: Inhibition of EPHA7 (unknown origin) at 10 uM after 120 mins P33 radiolabeled kinase activity assay
[3] = biological target: Serine/threonine-protein kinase PLK1 (Homo sapiens) (UniProt P53350); test: Inhibition of PLK1 (unknown origin) at 10 uM after 120 mins P33 radiolabeled kinase activity assay
Chain of Serine/threonine-protein kinase PLK1 (Homo sapiens) (P53350 whole entry): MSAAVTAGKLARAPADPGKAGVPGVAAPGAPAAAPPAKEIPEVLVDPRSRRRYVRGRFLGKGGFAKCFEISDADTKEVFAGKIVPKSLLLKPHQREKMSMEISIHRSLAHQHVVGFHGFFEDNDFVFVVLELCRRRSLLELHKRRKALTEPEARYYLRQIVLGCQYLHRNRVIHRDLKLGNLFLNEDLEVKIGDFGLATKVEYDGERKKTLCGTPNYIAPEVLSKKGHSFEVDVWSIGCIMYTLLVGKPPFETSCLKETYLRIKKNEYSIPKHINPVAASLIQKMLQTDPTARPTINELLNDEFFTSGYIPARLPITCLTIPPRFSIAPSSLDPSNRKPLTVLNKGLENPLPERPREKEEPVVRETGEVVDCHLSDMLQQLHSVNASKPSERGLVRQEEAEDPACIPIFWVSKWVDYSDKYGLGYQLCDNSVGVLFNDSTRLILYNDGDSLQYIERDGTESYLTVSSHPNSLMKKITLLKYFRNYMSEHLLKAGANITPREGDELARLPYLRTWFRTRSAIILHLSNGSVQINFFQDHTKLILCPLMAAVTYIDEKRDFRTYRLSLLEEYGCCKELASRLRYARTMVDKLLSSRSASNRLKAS

[4] = biological target: Cyclin-dependent kinase 18 (Homo sapiens) (UniProt Q07002); test: Inhibition of PCTK3 (unknown origin) at 10 uM after 120 mins P33 radiolabeled kinase activity assay
[5] = biological target: T1, Serine/threonine-protein kinase PLK4 (Homo sapiens) (UniProt O00444); test: Inhibition of PLK4 (unknown origin) at 10 uM after 120 mins P33 radiolabeled kinase activity assay
T1 sequence (whole entry): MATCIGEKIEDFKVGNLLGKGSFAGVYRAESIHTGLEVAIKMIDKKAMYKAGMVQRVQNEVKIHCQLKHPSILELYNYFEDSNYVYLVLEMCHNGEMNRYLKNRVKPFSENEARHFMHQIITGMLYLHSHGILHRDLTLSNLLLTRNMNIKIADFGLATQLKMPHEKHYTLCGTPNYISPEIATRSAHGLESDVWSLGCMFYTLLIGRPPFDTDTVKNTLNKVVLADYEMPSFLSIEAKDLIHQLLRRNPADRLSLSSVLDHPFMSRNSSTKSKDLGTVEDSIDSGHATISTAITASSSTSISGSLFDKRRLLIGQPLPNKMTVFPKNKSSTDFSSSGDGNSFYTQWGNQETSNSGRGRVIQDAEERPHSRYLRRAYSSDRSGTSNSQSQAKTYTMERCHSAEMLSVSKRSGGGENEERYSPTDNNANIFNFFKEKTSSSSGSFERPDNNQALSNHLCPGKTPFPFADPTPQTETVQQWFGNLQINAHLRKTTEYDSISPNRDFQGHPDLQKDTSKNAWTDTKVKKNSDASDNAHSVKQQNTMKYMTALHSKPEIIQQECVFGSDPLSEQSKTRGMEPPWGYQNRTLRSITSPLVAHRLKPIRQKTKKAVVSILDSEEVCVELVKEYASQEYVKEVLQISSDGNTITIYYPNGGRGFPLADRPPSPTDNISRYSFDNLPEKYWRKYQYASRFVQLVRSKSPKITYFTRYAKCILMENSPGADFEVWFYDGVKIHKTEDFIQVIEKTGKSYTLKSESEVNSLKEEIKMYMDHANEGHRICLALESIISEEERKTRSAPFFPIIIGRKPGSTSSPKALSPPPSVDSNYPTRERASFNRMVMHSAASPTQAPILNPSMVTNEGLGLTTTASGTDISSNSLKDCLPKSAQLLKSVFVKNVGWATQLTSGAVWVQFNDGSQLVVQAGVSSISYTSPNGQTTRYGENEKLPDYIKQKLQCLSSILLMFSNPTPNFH

[6] = biological target: Misshapen-like kinase 1 (Homo sapiens) (UniProt Q8N4C8); test: Inhibition of MINK (unknown origin) at 10 uM after 120 mins P33 radiolabeled kinase activity assay
Chain of Misshapen-like kinase 1 (Homo sapiens) (Q8N4C8 whole entry, looked up, canonical isoform): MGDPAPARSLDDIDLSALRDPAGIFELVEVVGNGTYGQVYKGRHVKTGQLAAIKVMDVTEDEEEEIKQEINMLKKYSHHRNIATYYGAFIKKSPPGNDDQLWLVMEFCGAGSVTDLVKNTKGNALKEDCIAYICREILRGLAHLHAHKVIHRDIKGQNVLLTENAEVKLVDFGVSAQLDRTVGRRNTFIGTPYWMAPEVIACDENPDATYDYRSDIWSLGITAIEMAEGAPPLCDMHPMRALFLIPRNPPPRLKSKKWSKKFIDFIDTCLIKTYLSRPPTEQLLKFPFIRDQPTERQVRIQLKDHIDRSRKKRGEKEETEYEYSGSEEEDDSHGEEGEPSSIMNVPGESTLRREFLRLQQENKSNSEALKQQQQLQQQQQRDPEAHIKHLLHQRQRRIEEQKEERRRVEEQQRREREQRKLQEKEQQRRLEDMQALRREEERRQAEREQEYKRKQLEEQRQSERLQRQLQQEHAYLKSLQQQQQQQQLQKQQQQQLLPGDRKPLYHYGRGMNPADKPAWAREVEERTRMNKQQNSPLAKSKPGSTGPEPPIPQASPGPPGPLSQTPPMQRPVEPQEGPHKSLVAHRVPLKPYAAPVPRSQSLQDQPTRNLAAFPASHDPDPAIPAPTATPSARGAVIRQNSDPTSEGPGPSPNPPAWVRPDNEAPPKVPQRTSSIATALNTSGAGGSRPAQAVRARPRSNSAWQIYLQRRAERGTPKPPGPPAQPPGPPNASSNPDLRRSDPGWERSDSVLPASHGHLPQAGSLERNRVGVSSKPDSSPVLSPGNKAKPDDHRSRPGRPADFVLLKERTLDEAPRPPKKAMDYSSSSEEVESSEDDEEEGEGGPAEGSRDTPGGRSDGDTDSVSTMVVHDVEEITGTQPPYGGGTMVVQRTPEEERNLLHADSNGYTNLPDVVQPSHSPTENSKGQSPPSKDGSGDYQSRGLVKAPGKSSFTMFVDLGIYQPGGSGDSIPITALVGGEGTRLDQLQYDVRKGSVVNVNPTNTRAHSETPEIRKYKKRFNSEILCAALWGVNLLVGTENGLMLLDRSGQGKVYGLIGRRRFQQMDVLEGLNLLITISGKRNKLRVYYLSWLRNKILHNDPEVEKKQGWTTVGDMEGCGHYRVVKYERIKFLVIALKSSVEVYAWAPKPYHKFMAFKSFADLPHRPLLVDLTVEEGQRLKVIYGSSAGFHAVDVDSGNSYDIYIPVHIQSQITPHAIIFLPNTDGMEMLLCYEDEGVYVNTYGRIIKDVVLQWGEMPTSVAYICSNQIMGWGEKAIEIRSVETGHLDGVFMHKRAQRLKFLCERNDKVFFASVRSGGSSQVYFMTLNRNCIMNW

[7] = biological target: Casein kinase I isoform gamma-1 (Homo sapiens) (UniProt Q9HCP0); test: Inhibition of CK1gamma1 (unknown origin) at 10 uM after 120 mins P33 radiolabeled kinase activity assay
[8] = biological target: T2, Serine/threonine-protein kinase 4 (Homo sapiens) (UniProt Q13043); test: Inhibition of MST1 (unknown origin) at 10 uM after 120 mins P33 radiolabeled kinase activity assay
T2 sequence (whole entry): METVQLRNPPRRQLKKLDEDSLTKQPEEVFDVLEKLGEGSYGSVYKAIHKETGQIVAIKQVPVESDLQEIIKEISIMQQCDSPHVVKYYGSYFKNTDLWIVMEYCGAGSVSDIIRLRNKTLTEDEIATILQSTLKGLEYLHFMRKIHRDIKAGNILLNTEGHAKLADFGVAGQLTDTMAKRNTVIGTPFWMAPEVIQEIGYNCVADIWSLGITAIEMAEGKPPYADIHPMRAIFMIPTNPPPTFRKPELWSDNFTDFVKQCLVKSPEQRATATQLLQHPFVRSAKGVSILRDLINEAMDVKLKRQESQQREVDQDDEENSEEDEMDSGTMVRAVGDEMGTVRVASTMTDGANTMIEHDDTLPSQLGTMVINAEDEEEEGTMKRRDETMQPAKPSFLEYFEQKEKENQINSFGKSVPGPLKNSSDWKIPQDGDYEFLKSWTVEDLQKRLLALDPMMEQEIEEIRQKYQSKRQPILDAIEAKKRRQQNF

[9] = biological target: T3, Testis-specific serine/threonine-protein kinase 3 (Homo sapiens) (UniProt Q96PN8); test: Inhibition of TSSK3 (unknown origin) at 10 uM after 120 mins P33 radiolabeled kinase activity assay
T3 sequence (whole entry): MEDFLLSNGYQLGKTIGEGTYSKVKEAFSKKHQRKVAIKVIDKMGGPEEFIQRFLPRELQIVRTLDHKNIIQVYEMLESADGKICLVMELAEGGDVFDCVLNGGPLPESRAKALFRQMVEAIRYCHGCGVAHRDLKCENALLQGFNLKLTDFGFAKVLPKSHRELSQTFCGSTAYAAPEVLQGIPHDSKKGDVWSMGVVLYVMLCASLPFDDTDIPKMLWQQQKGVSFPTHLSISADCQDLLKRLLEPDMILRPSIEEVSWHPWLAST

[10] = biological target: Ephrin type-A receptor 2 (Homo sapiens) (UniProt P29317); test: Inhibition of EPHA2 (unknown origin) at 10 uM after 120 mins P33 radiolabeled kinase activity assay
Chain of Ephrin type-A receptor 2 (Homo sapiens) (P29317 whole entry): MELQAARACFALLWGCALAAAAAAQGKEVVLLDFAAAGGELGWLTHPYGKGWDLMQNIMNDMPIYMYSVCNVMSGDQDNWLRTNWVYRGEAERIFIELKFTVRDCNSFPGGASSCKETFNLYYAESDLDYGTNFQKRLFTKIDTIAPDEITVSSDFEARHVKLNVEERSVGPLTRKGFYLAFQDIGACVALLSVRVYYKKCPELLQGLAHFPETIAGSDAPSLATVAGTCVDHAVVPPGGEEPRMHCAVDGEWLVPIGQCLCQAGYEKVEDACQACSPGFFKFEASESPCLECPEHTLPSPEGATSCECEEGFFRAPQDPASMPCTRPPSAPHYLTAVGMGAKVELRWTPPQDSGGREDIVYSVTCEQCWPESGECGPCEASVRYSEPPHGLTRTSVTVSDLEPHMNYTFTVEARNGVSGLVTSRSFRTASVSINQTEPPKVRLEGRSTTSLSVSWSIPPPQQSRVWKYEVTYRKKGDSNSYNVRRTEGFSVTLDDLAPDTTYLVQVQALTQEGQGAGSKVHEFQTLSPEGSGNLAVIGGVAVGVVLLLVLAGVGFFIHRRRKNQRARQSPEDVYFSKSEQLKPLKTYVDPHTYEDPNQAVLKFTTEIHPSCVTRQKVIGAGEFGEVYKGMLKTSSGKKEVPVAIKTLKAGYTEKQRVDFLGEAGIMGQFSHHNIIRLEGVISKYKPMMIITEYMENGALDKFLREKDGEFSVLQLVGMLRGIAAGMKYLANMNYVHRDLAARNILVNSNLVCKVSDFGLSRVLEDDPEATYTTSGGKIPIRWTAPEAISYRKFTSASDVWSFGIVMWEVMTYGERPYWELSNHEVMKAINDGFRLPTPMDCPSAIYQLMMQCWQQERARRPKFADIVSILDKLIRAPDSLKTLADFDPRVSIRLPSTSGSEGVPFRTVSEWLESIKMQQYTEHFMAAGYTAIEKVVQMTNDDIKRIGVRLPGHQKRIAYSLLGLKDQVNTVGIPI

[11] = biological target: Vascular endothelial growth factor receptor 3 (Homo sapiens) (UniProt P35916); test: Inhibition of FLT4 (unknown origin) at 10 uM after 120 mins P33 radiolabeled kinase activity assay
Chain of Vascular endothelial growth factor receptor 3 (Homo sapiens) (P35916 whole entry): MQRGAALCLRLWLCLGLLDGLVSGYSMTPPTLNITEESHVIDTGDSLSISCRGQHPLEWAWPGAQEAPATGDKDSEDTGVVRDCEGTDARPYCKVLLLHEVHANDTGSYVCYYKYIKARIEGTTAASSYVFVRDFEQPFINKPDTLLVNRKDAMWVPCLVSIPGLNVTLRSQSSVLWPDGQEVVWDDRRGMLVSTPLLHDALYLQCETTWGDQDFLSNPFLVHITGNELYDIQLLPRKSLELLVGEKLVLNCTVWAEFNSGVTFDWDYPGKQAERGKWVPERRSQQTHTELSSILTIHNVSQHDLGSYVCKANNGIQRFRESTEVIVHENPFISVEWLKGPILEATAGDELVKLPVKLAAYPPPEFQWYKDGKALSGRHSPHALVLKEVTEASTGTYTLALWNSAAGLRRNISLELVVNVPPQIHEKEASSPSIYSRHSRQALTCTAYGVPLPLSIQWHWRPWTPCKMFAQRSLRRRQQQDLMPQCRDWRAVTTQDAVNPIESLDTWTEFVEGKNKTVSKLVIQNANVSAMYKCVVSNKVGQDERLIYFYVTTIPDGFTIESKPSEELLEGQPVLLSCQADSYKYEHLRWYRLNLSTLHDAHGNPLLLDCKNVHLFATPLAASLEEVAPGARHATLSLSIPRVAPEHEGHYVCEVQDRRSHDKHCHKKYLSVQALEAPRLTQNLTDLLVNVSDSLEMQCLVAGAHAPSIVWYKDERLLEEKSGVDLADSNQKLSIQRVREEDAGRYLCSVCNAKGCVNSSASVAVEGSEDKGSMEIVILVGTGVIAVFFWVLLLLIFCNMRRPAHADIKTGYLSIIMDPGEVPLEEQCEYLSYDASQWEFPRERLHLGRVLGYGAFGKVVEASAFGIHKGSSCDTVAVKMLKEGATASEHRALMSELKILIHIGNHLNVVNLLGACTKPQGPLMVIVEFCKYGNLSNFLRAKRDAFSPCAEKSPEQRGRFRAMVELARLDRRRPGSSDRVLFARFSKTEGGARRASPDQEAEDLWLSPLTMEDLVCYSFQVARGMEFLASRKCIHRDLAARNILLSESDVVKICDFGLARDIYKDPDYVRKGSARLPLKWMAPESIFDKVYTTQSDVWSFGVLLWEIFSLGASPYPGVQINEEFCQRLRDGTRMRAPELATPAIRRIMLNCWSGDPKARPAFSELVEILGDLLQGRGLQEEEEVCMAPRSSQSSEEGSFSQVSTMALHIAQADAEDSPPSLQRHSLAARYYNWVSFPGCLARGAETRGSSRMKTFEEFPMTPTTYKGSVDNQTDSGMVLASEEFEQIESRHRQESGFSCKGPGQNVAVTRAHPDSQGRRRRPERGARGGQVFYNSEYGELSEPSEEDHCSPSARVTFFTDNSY

[12] = biological target: Maternal embryonic leucine zipper kinase (Homo sapiens) (UniProt Q14680); test: Inhibition of MELK (unknown origin) at 10 uM after 120 mins P33 radiolabeled kinase activity assay

Chain of Serine/threonine-protein kinase MARK2 (Homo sapiens) (Q7KZI7 whole entry): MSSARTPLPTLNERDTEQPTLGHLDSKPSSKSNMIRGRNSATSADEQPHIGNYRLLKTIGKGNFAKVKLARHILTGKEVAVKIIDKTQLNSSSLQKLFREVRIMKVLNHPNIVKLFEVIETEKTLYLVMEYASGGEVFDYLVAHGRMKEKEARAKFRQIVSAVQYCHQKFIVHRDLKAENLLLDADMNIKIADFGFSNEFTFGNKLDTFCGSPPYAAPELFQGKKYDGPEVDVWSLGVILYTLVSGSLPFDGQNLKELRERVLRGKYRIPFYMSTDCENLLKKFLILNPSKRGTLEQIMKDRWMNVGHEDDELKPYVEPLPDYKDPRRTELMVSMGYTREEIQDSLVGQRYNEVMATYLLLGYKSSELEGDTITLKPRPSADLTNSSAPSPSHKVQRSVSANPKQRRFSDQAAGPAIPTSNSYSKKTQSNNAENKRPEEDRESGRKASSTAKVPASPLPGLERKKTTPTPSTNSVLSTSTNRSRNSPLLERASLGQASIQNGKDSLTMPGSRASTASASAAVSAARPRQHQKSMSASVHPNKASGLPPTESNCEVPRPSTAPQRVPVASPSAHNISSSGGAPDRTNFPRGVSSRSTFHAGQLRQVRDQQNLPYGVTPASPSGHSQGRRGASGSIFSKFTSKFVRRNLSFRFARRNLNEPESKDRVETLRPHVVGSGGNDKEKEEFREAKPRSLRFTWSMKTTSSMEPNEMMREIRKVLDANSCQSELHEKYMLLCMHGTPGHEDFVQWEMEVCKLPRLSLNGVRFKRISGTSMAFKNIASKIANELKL

inhibition [1] [%]	inhibition [2] [%]	inhibition [3] [%]	inhibition [4] [%]	inhibition [5] [%]	inhibition [6] [%]	inhibition [7] [%]	inhibition [8] [%]	inhibition [9] [%]	inhibition [10] [%]	inhibition [11] [%]	inhibition [12] [%]	Structure (SMILES)
10.9	47.5	5.27	27.3	97	62.5	35.1	16	10.5	68	99.5	69.3	CS(=O)(=O)c1cccc(Nc2nccc(-c3sc(N4CCOCC4)nc3-c3cccc(NS(=O)(=O)c4c(F)cccc4F)c3)n2)c1
2.7	18.8	-0.52	-6.38	17.3	60.7	7.23	9.73	15	19.6	13.7	8.47	COCCNC(=O)c1ccc2c(c1)nc(-c1cnc(-c3ccc(Cl)cc3)[nH]1)n2CCOC
3.84	96.5	1.09	92.2	19.3	100	6.78	11.5	11.2	97.3	98.9	-0.03	CC(C)(C)c1cc(NC(=O)Nc2ccc(Oc3ccncc3)cc2)no1
